Literature values in patent US11083704B2, “Method of administering nitroxyl donating compounds” (Cardioxyl Pharmaceuticals, Inc., priority 2017, dated 2021).

How the values were obtained:
[1] = preclinical models and Phase I/IIa studies
[2] = healthy patients and patients hospitalized with advanced heart failure

## Cc1ccc(S(=O)(=O)NO)o1 [N-hydroxy-5-methylfuran-2-sulfonamide]
[1]
  inotropy: increased inotropy
  lusitropy: improved lusitropy
  vasodilation: peripheral vasodilation
[2]
  safety and tolerability of infusions: safe and well-tolerated
